Experimental data reported in patent publication US8883750B2, “Method of treating diabetes” (Gilead Sciences, Inc., priority 2002, dated 2014).

Key:
diabetic patients [1] = test: CARISA study: glucose, triglyceride and cholesterol values of diabetic patients; format: in vivo, human; details: for Glucose, change from baseline / Triglycerides, change from baseline: all diabetic patients, mean ± SEM; for Glucose, change from baseline: placebo change 1.2 ± 7.1; for Triglycerides, change from baseline: placebo change 26.3 ± 21.2
Protocol: The […] (Combination Assessment of Ranolazine in Stable Angina) study randomized 823 symptomatic chronic angina patients on diltiazem, atenolol or amlodipine to ranolazine 750 mg bid, 1000 mg bid or placebo in a parallel, double-blind, 12 week study. Modified Bruce treadmill tests were performed at baseline, and after 2, 6, and 12 weeks of treatment at trough and peak plasma levels. The ranolazine formulation used in this study was that shown in Example 10.

diabetic patients [2] = test: Open-label long-term ranolazine treatment of MARISA/CARISA diabetic patients; format: in vivo, human
Protocol: Efficacy and tolerability of ranolazine were similar in both diabetic and non-diabetic patients in both MARISA and CARISA. In diabetic patients in CARISA (N=131), ranolazine 750 and 1000 mg bid were associated with a mean absolute reduction in HbA1c of 0.48 percentage points and 0.70 percentage points, respectively, compared to placebo at 12 weeks (each p<0.01). The reductions versus placebo were greater in those patients on insulin (N=31; 0.84 and 1.05 percentage points), on 750 and 1000 mg bid (p<0.02 and p<0.01), respectively. Fasting glucose was not affected by ranolazine in diabetic patients in CARISA, regardless of insulin treatment; one hypoglycemic episode was reported on placebo and one on ranolazine.

[3] = test system: patients with chronic angina; test: MARISA study: treadmill exercise capacity, ranolazine alone; format: in vivo, human; details: N=191
Excerpt: (§1) Angina frequency and nitroglycerin consumption were reduced by ranolazine. The ranolazine formulation used in the CARISA and MARISA studies was that shown in Example 10. The most frequently reported adverse events (dizziness constipation and nausea) were generally mild and occurred in fewer than 10% of patients. The potential use of ranolazine in diabetics is of interest because approximately one in four angina patients has diabetes.

[4] = test system: symptomatic chronic angina patients; test: CARISA study: modified Bruce treadmill exercise tests and angina, ranolazine added to background anti-anginal therapy; format: in vivo, human; details: for Prolongation of exercise duration at trough drug concentrations: Example 10 formulation
Protocol: (§2) The CARISA (Combination Assessment of Ranolazine in Stable Angina) study randomized 823 symptomatic chronic angina patients on diltiazem, atenolol or amlodipine to ranolazine 750 mg bid, 1000 mg bid or placebo in a parallel, double-blind, 12 week study. Modified Bruce treadmill tests were performed at baseline, and after 2, 6, and 12 weeks of treatment at trough and peak plasma levels. The ranolazine formulation used in this study was that shown in Example 10.
as §1

[5] = Solubility of ranolazine in aqueous solutions as a function of pH; format: physicochemical
[6] = test system: angina patients with diabetes; test: CARISA study: hemoglobin A1c in angina patients with diabetes; format: in vivo, human; details: 12 weeks; for Average absolute reduction in HbA1c compared to placebo: all diabetic patients (N=131); for Absolute reduction in HbA1c compared to placebo: diabetic patients on insulin (N=31)
Protocol: HbA1c levels were assayed following a modification of the method of Phillipov (Components of total measurement error for hemoglobin A1c determination. Phillipov, G., et al. Clin. Chem. (2001), 47(10):1851). (see FIG. 1) The […] (Combination Assessment of Ranolazine in Stable Angina) study randomized 823 symptomatic chronic angina patients on diltiazem, atenolol or amlodipine to ranolazine 750 mg bid, 1000 mg bid or placebo in a parallel, double-blind, 12 week study. Modified Bruce treadmill tests were performed at baseline, and after 2, 6, and 12 weeks of treatment at trough and peak plasma levels. The ranolazine formulation used in this study was that shown in Example 10.

angina patients = test: Angina clinical trials using ranolazine: blood parameters (summary in background); format: in vivo, human
Excerpt: One compound disclosed therein, (±)-N-(2,6-dimethylphenyl)-4-[2-hydroxy-3-(2-methoxyphenoxy)-propyl]-1-piperazineacetamide (known as ranolazine) is undergoing clinical trials for the treatment of angina. […] Ranolazine was also found to reduce triglyceride levels in non-diabetic patients. Ranolazine was also found to lower glucose plasma levels and, over the long term, total cholesterol levels, while increasing HDL cholesterol levels. Thus, ranolazine provides a method of treating diabetes pre-diabetes, or the non-diabetes condition by reducing the levels of potentially toxic metabolites in blood and/or complications associated with diabetes. Ranolazine also can reduce the number of medications necessary for a patient with both cardiovascular problems and diabetes or pre-diabetes.

chronic angina patients = test: Adverse events in CARISA and MARISA; format: in vivo, human; details: for Patients with at least one adverse event: CARISA
Protocol: as §2, §1

[7] = first 12 weeks of treatment, diabetic patients in CARISA
[8] = over 3 years of open-label treatment, combined MARISA/CARISA diabetic population
[9] = CARISA, diabetic and non-diabetic patients

Which results are given for `COc1ccccc1OCC(O)CN1CCN(CC(=O)Nc2c(C)cccc2C)CC1` (racemic) [ranolazine, N-(2,6-dimethylphenyl)-4-[2-hydroxy-3-(2-methoxyphenoxy)propyl]-1-piperazineacetamide]?
Glucose, change from baseline (diabetic patients [1]; 750 mg bid, baseline 168 ± 8.0): 8.0 ± 8.8 mg/dL; Triglycerides, change from baseline (diabetic patients [1]; 750 mg bid, baseline 192.0 ± 14.5): 21.2 ± 13.5 mg/dL; Glucose, change from baseline (diabetic patients [1]; 1000 mg bid, baseline 165.2 ± 7.8): 1.7 ± 7.2 mg/dL; Triglycerides, change from baseline (diabetic patients [1]; 1000 mg bid, baseline 196 ± 17.5): -7.3 ± 9.3 mg/dL; Fasting glucose (diabetic patients [1]; diabetic patients in CARISA, regardless of insulin treatment): not affected; HDL/LDL ratio (diabetic patients [1]; [7]): changed little; Mean increase in HDL cholesterol (diabetic patients [1]; [7]): up to 5 mg/dL; Mean increase in LDL cholesterol (diabetic patients [1]; [7]): ≤ 11 mg/dL; Mean increase in total cholesterol (diabetic patients [1]; [7]): up to 16 mg/dL; Decrease of HbA1c from baseline (diabetic patients [2]; after 12-24 months of open-label treatment, diabetic patients): 1.1 percentage points; HDL cholesterol (diabetic patients [2]; [8]): continued to increase; LDL cholesterol (diabetic patients [2]; [8]): decreased from baseline; Total cholesterol (diabetic patients [2]; [8]): decreased from baseline; Treadmill exercise capacity [3]: increased; Prolongation of exercise duration at trough drug concentrations ([4]; 750 mg bid, angina patients with diabetes): 29 s; Prolongation of exercise duration at trough drug concentrations ([4]; 750 mg bid, non-diabetic angina patients): 22 s; Prolongation of exercise duration at trough drug concentrations ([4]; 1000 mg bid, angina patients with diabetes): 34 s; Prolongation of exercise duration at trough drug concentrations ([4]; 1000 mg bid, non-diabetic angina patients): 21 s; Angina frequency [4, 9]: decreased; Time to angina [4, 9]: increased; Angina frequency ([4]; MARISA and CARISA): reduced; Nitroglycerin consumption ([4]; MARISA and CARISA): reduced; Treadmill exercise capacity ([4]; added to atenolol, diltiazem, or amlodipine, CARISA, N=823): increased; Exercise duration (ED) at trough and peak (in words) ([4]; similarly in diabetic and non-diabetic patients): prolonged; Solubility in aqueous solutions (in words) ([5]; aqueous solutions having a pH above about 6.5): relatively insoluble; USP Solubility Class ([5]; solution pH 4.81): Freely Soluble; USP Solubility Class ([5]; solution pH 4.89): Soluble; USP Solubility Class ([5]; solution pH 4.90): Soluble; USP Solubility Class ([5]; solution pH 5.04): Soluble; USP Solubility Class ([5]; solution pH 5.35): Sparingly Soluble; USP Solubility Class ([5]; solution pH 5.82): Slightly soluble; USP Solubility Class ([5]; solution pH 6.46): Slightly soluble; USP Solubility Class ([5]; solution pH 6.73): Very slightly soluble; USP Solubility Class ([5]; solution pH 7.08): Very slightly soluble; USP Solubility Class ([5]; solution pH 7.59 (unbuffered water)): Very slightly soluble; USP Solubility Class ([5]; solution pH 7.79): Very slightly soluble; USP Solubility Class ([5]; solution pH 12.66): Very slightly soluble; Average absolute reduction in HbA1c compared to placebo ([6]; 750 mg bid, p<0.01): 0.48 percentage points; Absolute reduction in HbA1c compared to placebo ([6]; 750 mg bid, p<0.02): 0.84 percentage points; Absolute reduction in HbA1c compared to placebo ([6]; 750 mg bid, p<0.02, listed as Ranolazine): 0.8 percentage points; Average absolute reduction in HbA1c compared to placebo ([6]; 1000 mg bid, p<0.01): 0.70 percentage points; Absolute reduction in HbA1c compared to placebo ([6]; 1000 mg bid, p<0.01): 1.05 percentage points; Absolute reduction in HbA1c compared to placebo ([6]; 1000 mg bid, p<0.01, listed as Ranolazine): 1.1 percentage points; Glucose plasma levels (angina patients; angina clinical trials): lower; HDL cholesterol levels (angina patients; angina clinical trials): increasing; Hemoglobulin A1 (HbA1c) levels (angina patients; diabetic angina patients): reduced; Triglyceride levels (angina patients; diabetic angina patients, over the long term): reduced; Triglyceride levels (angina patients; non-diabetic patients): reduce; Total cholesterol levels (angina patients; over the long term): lower; Patients with the most frequently reported adverse events (dizziness constipation and nausea) (chronic angina patients; CARISA and MARISA, generally mild): < 10%; Patients with at least one adverse event (chronic angina patients; diabetic patients, 750 mg bid (placebo 25%)): 25%; Patients with at least one adverse event (chronic angina patients; diabetic patients, 1000 mg bid (placebo 25%)): 34%; Patients with at least one adverse event (chronic angina patients; non-diabetic patients, 750 mg bid (placebo 27%)): 33%; Patients with at least one adverse event (chronic angina patients; non-diabetic patients, 1000 mg bid (placebo 27%)): 32%; Hypoglycemic episodes reported (chronic angina patients; diabetic patients in CARISA (one on placebo)): one
